Laboratory results: ChEMBL document CHEMBL1142804, “Design, synthesis, and evaluation of novelly substituted benzimidazole compounds as angiotensin II receptor antagonists” (Bioorg Med Chem Lett, 2005)

experiment: Noncompetitive antagonism of Angiotensin II receptor in endothelium removed isolated rat aortic ring; assay type: functional; conditions: not given

Structure (SMILES) | pA10
CCc1nc2c([N+](=O)[O-])cccc2n1Cc1ccc(-c2ccccc2C(=O)O)cc1 | 3.4
CCCc1nc2c([N+](=O)[O-])cccc2n1Cc1ccc(-c2ccccc2C(=O)O)cc1 | 2.9
CCOCc1nc2c([N+](=O)[O-])cccc2n1Cc1ccc(-c2ccccc2C(=O)O)cc1 | 1.7
CCCCc1nc2c([N+](=O)[O-])cccc2n1Cc1ccc(-c2ccccc2C(=O)O)cc1 | 1.8

experiment: Competitive antagonism of Angiotensin II receptor in endothelium removed isolated rat aortic ring; (n = 5); assay type: functional; conditions: read-out: pA2 (converted)

Structure (SMILES) | Kb [µM]
CCCCc1nc2ccccc2n1Cc1ccc(-c2ccccc2C(=O)O)cc1 | 0.355
CCCCc1nc(Cl)c(CO)n1Cc1ccc(-c2ccccc2-c2nnn[nH]2)cc1 [LOSARTAN] | 0.0398
CCCCc1nc2c(N)cccc2n1Cc1ccc(-c2ccccc2C(=O)O)cc1 | 0.0158
CCOc1nc2cccc(C(=O)O)c2n1Cc1ccc(-c2ccccc2-c2nnn[nH]2)cc1 [CANDESARTAN] | 0.00955

experiment: Noncompetitive antagonism of Angiotensin II receptor in endothelium removed isolated rat aortic ring; (n = 5); assay type: functional; conditions: read-out: pA2 (converted)

Structure (SMILES) | Kb [µM]
CCc1nc2c([N+](=O)[O-])cccc2n1Cc1ccc(-c2ccccc2C(=O)O)cc1 | 0.1
CCCc1nc2c([N+](=O)[O-])cccc2n1Cc1ccc(-c2ccccc2C(=O)O)cc1 | 0.0794
CCOCc1nc2c([N+](=O)[O-])cccc2n1Cc1ccc(-c2ccccc2C(=O)O)cc1 | 0.0501
CCCCc1nc2c([N+](=O)[O-])cccc2n1Cc1ccc(-c2ccccc2C(=O)O)cc1 | 0.00316

experiment: Competitive antagonism of Angiotensin II receptor in endothelium removed isolated rat aortic ring; assay type: functional; conditions: not given

Structure (SMILES) | pA10
CCCCc1nc2ccccc2n1Cc1ccc(-c2ccccc2C(=O)O)cc1 | 5.81
CCCCc1nc(Cl)c(CO)n1Cc1ccc(-c2ccccc2-c2nnn[nH]2)cc1 [LOSARTAN] | 6.5
CCCCc1nc2c(N)cccc2n1Cc1ccc(-c2ccccc2C(=O)O)cc1 | 6.9
CCOc1nc2cccc(C(=O)O)c2n1Cc1ccc(-c2ccccc2-c2nnn[nH]2)cc1 [CANDESARTAN] | 7.1
